Results taken from paper PMC4255642 (Biochemistry, 2014).

Key:
[1] = test system: wild-type and mutant membrane-bound F1Fo ATP synthase; type: biochemical; settings: wild type and six mutants; 150 μM NBD-Cl 1 h, then 4 mM DTT 1 h
F1Fo-bound membranes = experiment: Control: protecting ligand without added NBD-Cl, ATPase activity; type: biochemical, Escherichia coli; settings: MgADP up to 10 mM, Pi up to 50 mM
[2] = target: αT349R mutant membrane-bound F1Fo ATP synthase (Escherichia coli, UniProt P0ABB0+P0ABB4, T349R/Y332W); type: biochemical; settings: sodium azide 30 min preincubation
[3] = target: αT349R/βR182A double mutant membrane-bound F1Fo ATP synthase (Escherichia coli, UniProt P0ABB0+P0ABB4, R183A/T349R/Y332W); type: biochemical; settings: sodium azide 30 min preincubation
[4] = target: αT349D mutant membrane-bound F1Fo ATP synthase (Escherichia coli, UniProt P0ABB0+P0ABB4, T349D/Y332W); type: biochemical; settings: sodium azide 30 min preincubation
[5] = target: αT349Q mutant membrane-bound F1Fo ATP synthase (Escherichia coli, UniProt P0ABB0+P0ABB4, T349Q/Y332W); type: biochemical; settings: sodium azide 30 min preincubation
[6] = target: βR182A mutant membrane-bound F1Fo ATP synthase (Escherichia coli, UniProt P0ABB0+P0ABB4, R183A/Y332W); type: biochemical; settings: sodium azide 30 min preincubation
[7] = target: αT349A mutant membrane-bound F1Fo ATP synthase (Escherichia coli, UniProt P0ABB0+P0ABB4, T349A/Y332W); type: biochemical; settings: sodium azide 30 min preincubation

**Q.** Which “reversal of NBD-Cl inactivation of ATPase activity by DTT” value [1] does the source give for O[C@@H](CS)[C@@H](O)CS (racemic) [DTT, dithiothreitol] here?
**A.** Its value is “completely restored full activity in all cases”.

**Q.** Nc1ncnc2c1ncn2[C@@H]1O[C@H](COP(=O)([O-])OP(=O)([O-])O)[C@@H](O)[C@H]1O.[Mg+2] [MgADP] was tested. Which “inhibitory effect of ligand alone on ATPase activity” value (F1Fo-bound membranes) did it give?
**A.** The value was “Neither MgADP (up to 10 mM) nor Pi (up to 50 mM) had any inhibitory effect alone”.

**Q.** With O=P(O)(O)O [Pi, inorganic phosphate] as the molecule, how does the “inhibitory effect of ligand alone on ATPase activity” value (F1Fo-bound membranes) read?
**A.** The value was “Neither MgADP (up to 10 mM) nor Pi (up to 50 mM) had any inhibitory effect alone”.

**Q.** What does the source list for [N-]=[N+]=[N-].[Na+] [azide, sodium azide]?
**A.** residual ATPase activity with azide [2]: ~40%; residual ATPase activity with azide [3]: ~21%; residual ATPase activity with azide [4]: ~90%; residual ATPase activity with azide [5]: ~90%; residual ATPase activity with azide [6]: ~72%; residual ATPase activity with azide [7]: ~53%
